In publication PMC7542351, “Construction of a new T7 promoter compatible Escherichia coli Nissle 1917 strain for recombinant production of heme-dependent proteins” (Microbial Cell Factories, 2020):

Target: T1, Cph1 (Synechocystis sp. PCC 6803, UniProt Q55168)
T1 construct: His6 tag; ~80 kDa; pET-cph1; co-produced with HO1 and PcyA in E. coli; cell-free lysate
Assay: red/far-red induced difference spectroscopy of holo-phytochrome
Type: biochemical
Conditions: cell-free lysate; pH 8.0, 25 °C; 630 nm / 730 nm light; PCB made in vivo by co-expressed HO1 and PcyA, and 40 µM PCB added; covalent

T1 sequence (Q55168 whole entry): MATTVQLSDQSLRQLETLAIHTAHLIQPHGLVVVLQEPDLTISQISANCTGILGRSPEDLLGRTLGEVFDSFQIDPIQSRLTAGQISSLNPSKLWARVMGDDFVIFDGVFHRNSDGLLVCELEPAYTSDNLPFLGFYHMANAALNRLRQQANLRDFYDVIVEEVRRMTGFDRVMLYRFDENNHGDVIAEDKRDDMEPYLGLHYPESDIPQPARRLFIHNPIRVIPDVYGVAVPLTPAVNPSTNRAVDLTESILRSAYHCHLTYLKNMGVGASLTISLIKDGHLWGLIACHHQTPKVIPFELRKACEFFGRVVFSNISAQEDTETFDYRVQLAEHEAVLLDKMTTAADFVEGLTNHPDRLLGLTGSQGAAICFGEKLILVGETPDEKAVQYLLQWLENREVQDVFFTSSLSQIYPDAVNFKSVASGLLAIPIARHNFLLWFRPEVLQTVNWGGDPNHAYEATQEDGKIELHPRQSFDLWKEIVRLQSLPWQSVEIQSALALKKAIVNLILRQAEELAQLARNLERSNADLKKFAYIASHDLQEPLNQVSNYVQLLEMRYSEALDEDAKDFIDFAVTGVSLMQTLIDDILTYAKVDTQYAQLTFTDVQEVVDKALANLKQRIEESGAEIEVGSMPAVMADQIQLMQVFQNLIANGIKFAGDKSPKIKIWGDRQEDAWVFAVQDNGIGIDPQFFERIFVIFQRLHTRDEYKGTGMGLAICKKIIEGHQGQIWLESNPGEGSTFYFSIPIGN

## CC=C1C(=Cc2[nH]c(C=C3N=C(C=C4NC(=O)C(CC)=C4C)C(C)=C3CCC(=O)O)c(CCC(=O)O)c2C)NC(=O)C1C (stereo not shown) [phycocyanobilin]
  red/far-red induced difference spectroscopy of holo-phytochrome: Comparison of difference spectra before and after incubation with PCB indicated a higher saturation
